Experimental data as given in patent US7064112B1, “Pharmaceutical compositions comprising an adenosine receptor agonist or antagonist” (Can-Fite Biopharma Ltd., priority 1999, dated 2006).

How the values were obtained:
bone marrow cells = assay: Bone marrow cell proliferation, [3H]-thymidine incorporation assay; assay type: cell-based, C57BL/6J or ICR mice; settings: for reduction of the increase in bone marrow cell proliferation as compared to adenosine alone: antagonist in combination with adenosine
Protocol: Bone marrow cells derived from the femur of C57BL/6J mice were used. The cells were prepared as previously described.
For this purpose, bone marrow cells obtained from the femur of C57BL/6J or ICR mice were first disaggregated by passing through a 25 G needle. Then, the cells (3×10^5 cells/well, in 96 microtiter plates) were incubated with RPMI medium containing 10% fetal bovine serum (FBS) in the presence of adenosine (25 μM). Adenosine or agonists to the A1 and A3 adenosine receptors—CPA (an A1RAg, 0.01 μM), CCPA (an A1RAg, 0.01 μM), or IB-MECA (an A3RAg, 0.01 μM), were added to the bone marrow cultures in the absence of adenosine; an A1 adenosine receptor antagonist, DPCPX (0.1 μM), was added to a bone marrow culture in the presence of adenosine (25 μM).
Cultures containing cells suspended in RPMI medium and 5% FBS served as the control for the above detailed experiment.
[^3H]-Thymidine incorporation assay was used to evaluate the proliferation of the bone marrow cells. For this purpose, after 30 hours of incubation, each well was pulsed with 1 μCi [^3H]-Thymidine. After a total of 48 hours of incubation, the cells were harvested and the [^3H]-Thymidine uptake was determined in an LKB liquid scintillation counter (LKB, Piscataway, N.J., USA).
Cell proliferation was evaluated as described above.
The cumulative effect on the proliferation of bone marrow cells, when using a combination of an A1RAgm1 A3RAg, (CPA and IB-MECA) was evaluated. Cells, after being disaggregated, were incubated in the presence of either adenosine (25 μM), CPA (0.01 μM), IB-MECA (0.01 μM) or a combination of IB-MECA and CPA (each in a concentration of 0.01 μM) and further treated as described above.
In order to compare the effect of adenosine receptor antagonist on the proliferation of bone marrow cells, following the same methodology described above, cells were incubated with adenosine alone or in combination with either DMPX (an A2RAn), DPCPX (an A1RAn), MRS-1220 (an A3RAn) or with a combination of DPCPX and MRS-1220.
Cells pre-treated as described above, were incubated at different concentrations of IB-MECA (1 μM, 0.1 μM or 0.01 μM).
Bone marrow cells (3×10^6 cell/ml) were incubated in wells of 96 microtiter plates. […] Cell proliferation was measured by [^3H]-thymidine incorporation assay.
B-16 melanoma cells (5×10^5 cells/ml) and bone marrow cells (3×10^6 cells/ml) were incubated in wells of 96 microtiter plate. […] Cell proliferation was measured by the [^3H]-thymidine incorporation assay mentioned before.
Murine bone marrow cells were cultured as described above. […] The antagonist was added at a concentration of 10 nM.

B-16 melanoma cells = assay: B-16 melanoma cell proliferation, [3H]-thymidine incorporation assay; assay type: cell-based, Murine; settings: FIG. 18
Protocol: B-16 melanoma cells (5×10^5 cells/ml) and bone marrow cells (3×10^6 cells/ml) were incubated in wells of 96 microtiter plate. The culture consisted of RPMI medium supplemented with 10% FTS: […] Cell proliferation was measured by the [^3H]-thymidine incorporation assay mentioned before.

[1] = tested on: Nb2-11C rat lymphoma cells; assay: Nb2-11C lymphoma cell growth, cell count assay; assay type: cell-based; settings: for growth inhibition of Nb2-11C lymphoma cells by receptor agonists: 0.01 μM agonist, 48 hours, FIG. 5A; for effect of receptor antagonist on the effect of adenosine on proliferation of Nb2-11C cells: 0.1 μM antagonist in combination with adenosine 25 μM, FIG. 5B
Protocol: Nb2-11C rat lymphoma cells (1.2×10^4 cells/ml) were incubated for 48 hours in 96 well microtiter plates with 1 ml RPMI medium containing 5% fetal bovine serum. Either 25 μM adenosine, 0.01 μM of an adenosine receptor agonists (CPA, an A1RAg; DPMA, an A2RAg or IB-MECA, an A3RAg) or 0.1 μM of an adenosine receptor antagonists (DPCPX, an A1RAn; DMPX, an A2RAn; or MRS-1220, an A3RAn) in combination with adenosine (25 μM) was added.
Cultures containing cells suspended in RPMI medium with 5% FBS served as controls for the above detailed experiment. Extent of cell proliferation was measured by a cell count assay.
Briefly, Nb2-11C lymphoma or bone marrow cells were incubated in the presence of either adenosine, or IB-MECA.

[2] = tested on: peripheral blood leukocytes and neutrophils; settings: for total white blood cell count after cyclophosphamide: i.p. adenosine 25 μg/kg or IB-MECA 3 or 6 μg/kg at 48 and 72 hours, FIG. 10A
Protocol: A further experiment was conducted in order to evaluate the chemoprotective effect of A3RAg. Mice were treated with cyclophosphamide (50 mg/kg body weight in 0.3 ml PBS). After 48 and 72 hours from administration of the cytotoxic drug, the mice were injected i.p. with adenosine (25 μg/kg body weight) or with IB-MECA (3 or 6 μg/kg body weight in 0.2 ml PBS). The number of white blood cells (WBC) and neutrophils was tested.

[3] = Weight of nude mice treated with 5-FU and/or Cl-IB-MECA; assay type: in vivo, nude mice (BALB/C origin); settings: FIG. 11; for weight of the mice as compared to control: day 7, 10 and 14, 5-FU 30 mg/kg i.p. five days, or Cl-IB-MECA 6 μg/kg oral every second day, alone
[4] = tested on: white blood cells and bone marrow nucleated cells; assay: Doxorubicin-induced myelotoxicity in ICR mice; assay type: in vivo; settings: doxorubicin 10 mg/kg i.p., Cl-IB-MECA 6 μg/kg oral at 24, 48, 72 hours
Protocol: ICR mice were treated with doxorubicin (injection of 10 mg/kg i.p. in 0.5 ml PBS). […] At 72 hours, 96 hours, 120 hours and 144 hours, the mice were sacrificed and blood samples were withdrawn. In addition, bone marrow cells were aspirated from the femur of the mice and a cell count of nucleated cells from this aspirated preparation was made, following staining of the preparation with Coomassie Blue.

[5] = tested on: HCT-116 human colon cancer cells; assay: HCT-116 human colon carcinoma tumor growth in nude mice; assay type: in vivo; settings: for tumor growth (tumor size), combined therapy experiment: 5-FU 30 mg/kg i.p. 5 days, Cl-IB-MECA 5 μg/kg oral every other day, FIGS. 15 and 16
Protocol: Tumors were established by subcutaneous injection of 1×10^6 HCT-116 human colon cancer cells to nude mice (BALB/C origin) (Harlan, Jerusalem, Israel). […] Mice that were treated with the vehicle only (PBS). Each group consisted of 10 mice. Tumor growth rate was determined by measuring two orthogonal diameters of each tumor twice a week, and the tumor size was estimated according to the following formula: π/6[D1D2]. The results are depicted in FIG. 14. […] 1×10^6 HCT-116 cells were injected subcutaneously to nude mice. One day later, 5-FU (30 mg/kg body weight, in 0.2 ml PBS) was intraperitoneally injected and subsequently in 4 additional consecutive days. […] Mice that were treated either with the vehicle only (PBS) or with 5-FU served as control. Each group consisted of 10 mice. Tumor growth rate was determined by measuring two orthogonal diameters of each tumor twice a week, and the tumor size was estimated according to the following formula: π/6[D1D2].

white blood cells (WBC) = settings: CYP 50 mg/kg i.p.; blood 124 hours after chemotherapy; FIG. 13
Protocol: Each group consisted of 10 mice and the experiment was repeated twice.
The CYP was injected intraperitoneally in 0.2 ml of PBS which served as the carrier.
Anti-G-CSF antibodies were intravenously injected (in 0.2 ml PBS) 72 hours following the administration of the chemotherapeutic drugs.
Blood samples were withdrawn 124 hours following chemotherapy. White blood cells (WBC) counts were made in a Coulter counter and differential cell counts were carried on smear preparations stained with May-Grundvald-Giemsa solution.

CCCOC(=O)c1c(-c2ccccc2)nc(CC)c(C(=O)SCC)c1CCC [MRS-1523, reference compound]
proliferation of bone marrow cells in the presence of MRS-1523 (bone marrow cells; with Cl-IB-MECA 0.01 μM or 0.1 μM, FIG. 18): unchanged versus control
proliferation of B-16 melanoma cells in the presence of MRS-1523 (B-16 melanoma cells; with Cl-IB-MECA 0.01 μM or 0.1 μM): unchanged versus control

OC[C@H]1O[C@@H](n2cnc3c(NC4CCCC4)ncnc32)[C@H](O)[C@@H]1O [CPA, N-cyclopentyladenosine]
growth inhibition of Nb2-11C lymphoma cells by receptor agonists [1]: No growth inhibition

COc1cc(OC)cc(C(CNc2ncnc3c2ncn3[C@@H]2O[C@H](CO)[C@@H](O)[C@H]2O)c2ccccc2C)c1 (stereo partly drawn) [DPMA, N^6-[2-(3,5-dimethoxyphenyl)-2-(2-methylphenyl)-ethyl] adenosine]
growth inhibition of Nb2-11C lymphoma cells by receptor agonists [1]: lower growth inhibition

O=C(Cc1ccccc1)Nc1nc2ccc(Cl)cc2c2nc(-c3ccco3)nn12 [MRS-1220, 9-chloro-2-(2-furanyl)-5-[(phenylacetyl)amino] [1,2,4,]-triazolo[1,5-c]quinazoline]
reduction of the increase in bone marrow cell proliferation as compared to adenosine alone (bone marrow cells; FIG. 3B): about 50%
effect of receptor antagonist on the effect of adenosine on proliferation of Nb2-11C cells [1]: substantially abolished
therapeutic effect of A3RAg (IB-MECA) when A3 receptor antagonist employed ([1]; FIGS. 7A–7B, tumor and normal cells): reversed

C#CCn1c(=O)c2c(ncn2C)n(C)c1=O [DMPX, 3,7-dimethyl-1-propargyl-xantane, reference compound]
proliferation of bone marrow cells, adenosine in combination with receptor antagonist (bone marrow cells; compared to adenosine alone, FIG. 3B): increased proliferation of bone marrow cells which even exceeded that of adenosine alone
effect of receptor antagonist on the effect of adenosine on proliferation of Nb2-11C cells [1]: minor, however still significant effect

CCCn1c(=O)c2[nH]c(C3CCCC3)nc2n(CCC)c1=O [DPCPX, 1,3-dipropyl-8-cyclopentylxanthine, reference compound]
reduction of the increase in bone marrow cell proliferation as compared to adenosine alone (bone marrow cells; FIG. 3B): about 50%
effect of receptor antagonist on the effect of adenosine on proliferation of Nb2-11C cells [1]: essentially no effect

CNC(=O)[C@H]1O[C@@H](n2cnc3c(NCc4cccc(I)c4)nc(Cl)nc32)[C@H](O)[C@@H]1O [Cl-IB-MECA]
effect on proliferation of bone marrow cells (bone marrow cells; 1 or 10 nM, FIG. 20): dose dependent
proliferation of bone marrow cells (bone marrow cells; Cl-IB-MECA 0.01 μM or 0.1 μM, FIG. 18): proliferation stimulation effect
proliferation of B-16 melanoma cells (B-16 melanoma cells; Cl-IB-MECA 0.01 μM or 0.1 μM): inhibitory effect
white blood cells and neutrophils after chemotherapy, experiment with Cl-IB-MECA ([2]; mouse, in vivo): chemoprotective activity
5-FU-induced weight loss ([3]; Cl-IB-MECA 6 μg/kg oral administered together with 5-FU 30 mg/kg i.p.): prevented some of this weight loss
weight of the mice as compared to control [3]: did essentially not give rise to any weight loss
number of peripheral white blood cells after doxorubicin ([4]; FIG. 12A): marked increase
number of bone marrow nucleated cells after doxorubicin ([4]; FIG. 12B): marked increase
tumor growth (tumor size), combined therapy experiment [5]: marked inhibition of tumor growth
tumor growth (tumor size) ([5]; Cl-IB-MECA 6 μg/kg oral every other day, FIG. 14): marked inhibition of tumor growth

Nc1ncnc2c1ncn2[C@@H]1O[C@H](CO)[C@@H](O)[C@H]1O [adenosine]
total white blood cell count after cyclophosphamide ([2]; cyclophosphamide 50 mg/kg): restored

CNC(=O)[C@H]1O[C@@H](n2cnc3c(NCc4cccc(I)c4)ncnc32)[C@H](O)[C@@H]1O [IB-MECA, 1-deoxy-1-{6-[({3-iodophenyl}methyl)amino]-9H-purine-9-yl}-N-methyl-β-D-ribofuranuronamide]
effect on proliferation of bone marrow cells (bone marrow cells; 1 or 10 nM, FIG. 20): dose dependent
effect on proliferation of bone marrow cells (bone marrow cells; FIG. 7B): stimulating the proliferation of bone marrow cells
stimulation of bone marrow cell proliferation (bone marrow cells; IB-MECA 1 μM, 0.1 μM or 0.01 μM): stimulates proliferation of bone marrow in a dose dependent manner
growth inhibition of Nb2-11C lymphoma cells by receptor agonists [1]: markedly inhibited
effect on growth of tumor cells (Nb2-11C lymphoma) ([1]; FIG. 7A): inhibiting the growth of tumor cells
complete recovery of total white blood cell count after ([2]; cyclophosphamide 50 mg/kg, IB-MECA i.p. at 48 and 72 hours): 168 h
total white blood cell count after cyclophosphamide ([2]; cyclophosphamide 50 mg/kg): restored

O=P1(N(CCCl)CCCl)NCCCO1 (stereo not drawn) [cyclophosphamide, Cyclophosphamide, reference compound]
number of peripheral blood leukocytes and neutrophils, cytotoxic drug only ([2]; cyclophosphamide 50 mg/kg only): decline in the number of peripheral blood leukocytes and neutrophils
number of peripheral blood WBC, cyclophosphamide only (white blood cells (WBC)): decline in the number of peripheral blood WBC

O=c1[nH]cc(F)c(=O)[nH]1 [5-FU, 5-fluoro-uracyl, reference compound]
weight of the mice as compared to control [3]: profound effect on the weight of the mice
tumor growth (tumor size), combined therapy experiment [5]: marked inhibition of tumor growth
